# Source: ChEMBL document CHEMBL4665905, “2-Amino-N-heteroaryl-nicotimamides as Na1.8 Inhibitors” (ACS Med Chem Lett, 2020)
# Molecular target: Sodium channel protein type 10 subunit alpha (Homo sapiens, UniProt Q9Y5Y9)
# Test: Inhibition of human Nav1.8 expressed in HEK293 cells by whole cell patch clamp assay
# Assay type: cell-based
# Sodium channel protein type 10 subunit alpha, sequence (Q9Y5Y9 whole entry): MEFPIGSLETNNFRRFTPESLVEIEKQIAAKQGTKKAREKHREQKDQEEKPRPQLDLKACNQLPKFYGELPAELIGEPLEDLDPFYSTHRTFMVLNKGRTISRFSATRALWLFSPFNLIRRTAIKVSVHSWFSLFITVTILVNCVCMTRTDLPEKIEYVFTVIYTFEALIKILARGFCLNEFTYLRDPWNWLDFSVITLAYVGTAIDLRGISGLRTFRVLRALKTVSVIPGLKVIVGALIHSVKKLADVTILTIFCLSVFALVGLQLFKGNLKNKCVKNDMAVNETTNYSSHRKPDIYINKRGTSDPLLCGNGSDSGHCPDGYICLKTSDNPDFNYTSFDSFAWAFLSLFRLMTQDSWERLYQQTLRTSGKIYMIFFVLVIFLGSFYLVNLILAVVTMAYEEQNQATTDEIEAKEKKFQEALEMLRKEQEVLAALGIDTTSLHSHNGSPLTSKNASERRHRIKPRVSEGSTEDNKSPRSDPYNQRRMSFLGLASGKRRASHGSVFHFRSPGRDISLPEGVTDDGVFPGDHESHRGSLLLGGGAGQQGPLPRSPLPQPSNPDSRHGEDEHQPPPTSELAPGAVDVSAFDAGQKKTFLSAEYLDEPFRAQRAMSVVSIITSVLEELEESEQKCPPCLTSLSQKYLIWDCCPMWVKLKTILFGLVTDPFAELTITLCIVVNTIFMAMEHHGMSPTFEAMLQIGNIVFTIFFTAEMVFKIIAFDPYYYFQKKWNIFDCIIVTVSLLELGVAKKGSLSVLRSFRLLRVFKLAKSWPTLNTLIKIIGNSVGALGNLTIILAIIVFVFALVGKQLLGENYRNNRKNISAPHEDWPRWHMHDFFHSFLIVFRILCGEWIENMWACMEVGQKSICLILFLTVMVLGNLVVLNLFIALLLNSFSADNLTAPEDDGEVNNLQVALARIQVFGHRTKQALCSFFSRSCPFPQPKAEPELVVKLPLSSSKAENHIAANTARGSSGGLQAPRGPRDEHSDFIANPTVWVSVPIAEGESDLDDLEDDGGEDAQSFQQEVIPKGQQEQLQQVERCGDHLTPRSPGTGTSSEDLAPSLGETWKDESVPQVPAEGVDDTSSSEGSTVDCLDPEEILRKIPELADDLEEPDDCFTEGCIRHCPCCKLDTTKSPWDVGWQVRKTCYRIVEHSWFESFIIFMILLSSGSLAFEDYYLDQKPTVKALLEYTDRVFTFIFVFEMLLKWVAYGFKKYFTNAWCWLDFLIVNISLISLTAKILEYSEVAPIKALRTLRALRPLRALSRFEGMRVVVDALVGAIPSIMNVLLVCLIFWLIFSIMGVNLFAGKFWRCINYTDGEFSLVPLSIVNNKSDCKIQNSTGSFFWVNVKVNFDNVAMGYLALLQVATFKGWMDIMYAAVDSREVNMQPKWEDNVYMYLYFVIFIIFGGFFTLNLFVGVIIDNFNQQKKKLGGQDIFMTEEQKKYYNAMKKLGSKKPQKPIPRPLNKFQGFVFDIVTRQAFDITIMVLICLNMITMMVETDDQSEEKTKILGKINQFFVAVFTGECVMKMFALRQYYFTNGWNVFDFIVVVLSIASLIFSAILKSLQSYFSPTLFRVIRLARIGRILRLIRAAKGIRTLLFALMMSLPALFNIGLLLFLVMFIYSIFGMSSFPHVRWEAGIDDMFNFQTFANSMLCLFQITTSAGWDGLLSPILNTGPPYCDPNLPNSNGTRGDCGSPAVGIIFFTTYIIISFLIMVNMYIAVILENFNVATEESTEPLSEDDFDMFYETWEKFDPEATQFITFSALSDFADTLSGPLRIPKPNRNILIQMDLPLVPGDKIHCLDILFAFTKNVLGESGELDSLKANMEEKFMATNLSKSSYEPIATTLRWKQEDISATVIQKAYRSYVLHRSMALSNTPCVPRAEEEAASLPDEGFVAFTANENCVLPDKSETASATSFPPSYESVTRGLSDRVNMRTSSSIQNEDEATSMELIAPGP
compound,measurement,value
NS(=O)(=O)c1cc(NC(=O)c2cc(Cl)cnc2N2CCCC(F)(F)CC2)ccn1,IC50,3.9 nM
